Measured values taken from PMC11012124, “Synthesis of Novel Triazine-Based Chalcones and 8,9-dihydro-7H-pyrimido[4,5-b][1,4]diazepines as Potential Leads in the Search of Anticancer, Antibacterial and Antifungal Agents” (International Journal of Molecular Sciences, 2024).

Assays:
[1] = test system: UACC-257; test: cells; details: Homo sapiens, UACC-257, 48 h; for CC50: read-out: LC50
[2] = test system: NCI-H23; test: cells; details: Homo sapiens, NCI-H23, 48 h; for CC50: read-out: LC50
[3] = test system: COLO 205; test: cells; details: Homo sapiens, COLO 205, 48 h; for CC50: read-out: LC50
[4] = test system: SF-295; test: cells; details: Homo sapiens, SF-295, 48 h; for CC50: read-out: LC50
[5] = test system: LOX IMVI; test: cells; details: Homo sapiens, 48 h; for CC50: read-out: LC50, LOX IMVI, 48 h
[6] = test system: PC-3; test: cells; details: Homo sapiens, PC-3, 48 h; for CC50: read-out: LC50
[7] = test system: RPMI-8226; test: cells; details: Homo sapiens, RPMI-8226, 48 h; for CC50: read-out: LC50
[8] = test system: SK-MEL-5; test: cells; details: Homo sapiens, SK-MEL-5, 48 h; for CC50: read-out: LC50
[9] = test system: MOLT-4; test: cells; details: Homo sapiens, MOLT-4, 48 h; for CC50: read-out: LC50
[10] = test system: SF-539; test: cells; details: Homo sapiens, SF-539, 48 h; for CC50: read-out: LC50, SF-539, 48 h
[11] = test system: HOP-92; test: cells; details: Homo sapiens, HOP-92, 48 h; for CC50: read-out: LC50
[12] = test system: HOP-62; test: cells; details: Homo sapiens, HOP-62, 48 h; for CC50: read-out: LC50
[13] = test system: 60 cancer cell lines; test: NCI-60 one-dose screen (10 μM); type: cell-based; details: Homo sapiens; one dose of 10 μM, mean over 60 cancer cell lines; read-out: Mean Growth Percent (MGP)
From the text: Additionally, the mean of the growth percentages (MGP) of each compound against all the 60 cancer cell lines is also reported, which is used as one of the selection criteria to continue with tests at five concentration doses.

[14] = test system: SF-268; test: cells; details: Homo sapiens, SF-268, 48 h; for CC50: read-out: LC50
[15] = test system: ACHN; test: cells; details: Homo sapiens, 48 h; for CC50: read-out: LC50
[16] = test system: HCT-116; test: cells; details: Homo sapiens, HCT-116, 48 h; for CC50: read-out: LC50
[17] = test system: SNB-19; test: cells; details: Homo sapiens, SNB-19, 48 h; for CC50: read-out: LC50
[18] = test system: M14; test: cells; details: Homo sapiens, M14, 48 h; for CC50: read-out: LC50
[19] = test system: HCT-15; test: cells; details: Homo sapiens, HCT-15, 48 h; for CC50: read-out: LC50
[20] = test system: NCI-H226; test: cells; details: Homo sapiens, NCI-H226, 48 h; for CC50: read-out: LC50
[21] = test system: BT-549; test: cells; details: Homo sapiens, BT-549, 48 h; for CC50: read-out: LC50
[22] = test system: NCI-H322M; test: cells; details: Homo sapiens, 48 h; for CC50: read-out: LC50
[23] = test system: MDA-MB-468; test: cells; details: Homo sapiens, MDA-MB-468, 48 h; for CC50: read-out: LC50
[24] = test system: SNB-75; test: cells; details: Homo sapiens, SNB-75, 48 h; for CC50: read-out: LC50
[25] = test system: U251; test: cells; details: Homo sapiens, U-251, 48 h; for GI50: U251, 48 h; for CC50: read-out: LC50
[26] = test system: A498; test: cells; details: Homo sapiens, A498, 48 h; for CC50: read-out: LC50
[27] = test system: EKVX; test: cells; details: Homo sapiens, 48 h; for CC50: read-out: LC50
[28] = test system: UACC-62; test: cells; details: Homo sapiens, UACC-62, 48 h; for CC50: read-out: LC50
[29] = test system: HCC-2998; test: cells; details: Homo sapiens, HCC 2998, 48 h; for CC50: read-out: LC50
[30] = test system: 786-0; test: cells; details: Homo sapiens, 786-0, 48 h; for CC50: read-out: LC50
[31] = test system: HS 578T; test: cells; details: Homo sapiens, 48 h; for CC50: read-out: LC50
[32] = test system: UO-31; test: cells; details: Homo sapiens, UO-31, 48 h; for CC50: read-out: LC50
[33] = test system: A549/ATCC; test: cells; details: Homo sapiens, A549, 48 h; for CC50: read-out: LC50
[34] = test system: MDA-MB-231/ATCC; test: cells; details: Homo sapiens, MDA-MB-231, 48 h; for CC50: read-out: LC50
[35] = test system: OVCAR-3; test: cells; details: Homo sapiens, OVCAR-3, 48 h; for CC50: read-out: LC50
[36] = test system: HT29; test: cells; details: Homo sapiens, HT-29, 48 h; for CC50: read-out: LC50
[37] = test system: RXF 393; test: cells; details: Homo sapiens, RXF 393, 48 h

## COc1cc(/C=C/C(=O)c2cc(OC)c(OC)c(OC)c2)ccc1Oc1nc(Nc2ccc(F)cc2)nc(N(C)C)n1 [21d]
[1]
  GI50: 2.83 µM
  CC50: > 100 µM
[2]
  GI50: 1.63 µM
  CC50: 8.08 µM
[3]
  GI50: 4.45 µM
  CC50: 47.5 µM
[4]
  GI50: 1.98 µM
  CC50: 19.6 µM
[5]
  GI50: 0.478 µM
  CC50: 4.11 µM
[6]
  GI50: 2.77 µM
  CC50: > 100 µM
[7]
  GI50: 0.751 µM
  CC50: > 100 µM
[8]
  GI50: 2.16 µM
  CC50: 12.2 µM
[9]
  GI50: 0.472 µM
  CC50: > 100 µM
[10]
  GI50: 1.64 µM
  CC50: 5.81 µM
[11]
  GI50: 1.67 µM
  CC50: 50.9 µM
[12]
  GI50: 1.83 µM
  CC50: 8.22 µM
[13]
  activity at 10 µM: -33.4%
[14]
  GI50: 3.43 µM
  CC50: > 100 µM
[15]
  GI50: 2.3 µM
  CC50: 50.6 µM
[16]
  GI50: 1.4 µM
  CC50: 7.24 µM
[17]
  GI50: 1.86 µM
  CC50: 18.5 µM
[18]
  GI50: 2.83 µM
  CC50: 32.8 µM
[19]
  GI50: 1.18 µM
  CC50: 6.39 µM
[20]
  GI50: 1.44 µM
  CC50: 7.24 µM
[21]
  GI50: 1.56 µM
  CC50: 6.56 µM
[22]
  GI50: 2.99 µM
  CC50: > 100 µM
[23]
  GI50: 1.35 µM
  CC50: 9.11 µM
[24]
  GI50: 2.54 µM
  CC50: 81.8 µM
[25]
  GI50: 0.503 µM
  CC50: 9.59 µM
[26]
  GI50: 3.99 µM
  CC50: 38.9 µM
[27]
  GI50: 2.15 µM
  CC50: 31.1 µM
[28]
  GI50: 1.41 µM
  CC50: 6.38 µM
[29]
  GI50: 2.03 µM
  CC50: 8.52 µM
[30]
  GI50: 1.45 µM
  CC50: 7.19 µM
[31]
  GI50: 2.39 µM
  CC50: > 100 µM
[32]
  GI50: 1.12 µM
  CC50: 4.96 µM
[33]
  GI50: 4.49 µM
  CC50: 54.7 µM
[34]
  GI50: 1.48 µM
  CC50: 8.63 µM
[35]
  GI50: 2.57 µM
  CC50: > 100 µM
[36]
  GI50: 1.54 µM
  CC50: 8.22 µM

## COc1cc(/C=C/C(=O)c2ccc(C)cc2)ccc1Oc1nc(Nc2ccc(F)cc2)nc(N(C)C)n1 [21b]
[1]
  GI50: 8.76 µM
  CC50: > 100 µM
[2]
  GI50: 5.52 µM
  CC50: > 100 µM
[3]
  GI50: 41.7 µM
  CC50: > 100 µM
[4]
  GI50: 8.61 µM
  CC50: > 100 µM
[5]
  GI50: 1.84 µM
  CC50: 6.69 µM
[6]
  GI50: 8.85 µM
  CC50: > 100 µM
[7]
  GI50: 3 µM
  CC50: > 100 µM
[8]
  GI50: 5.14 µM
  CC50: 78.5 µM
[9]
  GI50: 2.8 µM
  CC50: > 100 µM
[10]
  GI50: 7.64 µM
  CC50: 44.9 µM
[11]
  GI50: 4.57 µM
  CC50: > 100 µM
[12]
  GI50: 32.2 µM
  CC50: > 100 µM
[13]
  activity at 10 µM: 39%
[14]
  GI50: 13.9 µM
  CC50: > 100 µM
[15]
  GI50: 9.58 µM
  CC50: 96.5 µM
[16]
  GI50: 2.28 µM
  CC50: 24.4 µM
[17]
  GI50: 11.1 µM
  CC50: 67.3 µM
[18]
  GI50: 14.7 µM
  CC50: > 100 µM
[19]
  GI50: 4.73 µM
  CC50: 43.4 µM
[20]
  GI50: 5.22 µM
  CC50: 49.1 µM
[21]
  GI50: 6.27 µM
  CC50: 91.3 µM
[22]
  GI50: 51.9 µM
  CC50: > 100 µM
[23]
  GI50: 4.64 µM
  CC50: > 100 µM
[24]
  GI50: 15.4 µM
  CC50: > 100 µM
[25]
  GI50: 3.32 µM
  CC50: > 100 µM
[26]
  GI50: 41.8 µM
  CC50: > 100 µM
[27]
  GI50: 6.71 µM
  CC50: > 100 µM
[28]
  GI50: 10.1 µM
  CC50: > 100 µM
[29]
  GI50: 20.5 µM
  CC50: > 100 µM
[30]
  GI50: 13.3 µM
  CC50: > 100 µM
[31]
  GI50: 7.24 µM
  CC50: > 100 µM
[32]
  GI50: 4.2 µM
  CC50: > 100 µM
[33]
  GI50: 45.8 µM
  CC50: > 100 µM
[34]
  GI50: 5.24 µM
  CC50: 50.8 µM
[35]
  GI50: 13 µM
  CC50: > 100 µM
[36]
  GI50: 8.15 µM
  CC50: > 100 µM

## CN(C)c1nc(NCCNS(=O)(=O)c2ccc(C(=O)/C=C/c3ccc(C(F)(F)F)cc3)cc2)nc(N2CCOCC2)n1 [23g]
[1]
  GI50: 15.3 µM
  CC50: 56.5 µM
[2]
  GI50: 13 µM
  CC50: 52.6 µM
[3]
  GI50: 15 µM
  CC50: 69.8 µM
[4]
  GI50: 8.11 µM
  CC50: 45.4 µM
[5]
  GI50: 1.68 µM
  CC50: 5.94 µM
[6]
  GI50: 10.8 µM
  CC50: 60 µM
[7]
  GI50: 1.77 µM
  CC50: > 100 µM
[8]
  GI50: 15.8 µM
  CC50: 54.9 µM
[9]
  GI50: 3.48 µM
  CC50: > 100 µM
[10]
  GI50: 13 µM
  CC50: 50.7 µM
[11]
  GI50: 15.2 µM
  CC50: 65.2 µM
[12]
  GI50: 17 µM
  CC50: 61.3 µM
[13]
  activity at 10 µM: -14.8%
[14]
  GI50: 16.3 µM
  CC50: 87.9 µM
[15]
  GI50: 8.6 µM
  CC50: 45.5 µM
[37]
  GI50: 11.5 µM
[37]; read-out: LC50
  CC50: 49 µM
[16]
  GI50: 3.19 µM
  CC50: 33.5 µM
[17]
  GI50: 13.5 µM
  CC50: 51.3 µM
[18]
  GI50: 9.83 µM
  CC50: 49.5 µM
[19]
  GI50: 1.86 µM
  CC50: 7.07 µM
[20]
  GI50: 16.1 µM
  CC50: 78.9 µM
[21]
  GI50: 15.6 µM
  CC50: 54.9 µM
[22]
  GI50: 14.2 µM
  CC50: 52.1 µM
[23]
  GI50: 5.11 µM
  CC50: 48.8 µM
[25]
  GI50: 2.95 µM
  CC50: 40.7 µM
[26]
  GI50: 13.3 µM
  CC50: 53 µM
[27]
  GI50: 14.3 µM
  CC50: 52.5 µM
[28]
  GI50: 11.2 µM
  CC50: 48.5 µM
[29]
  GI50: 12.9 µM
  CC50: 52.5 µM
[30]
  GI50: 14.5 µM
  CC50: 54.9 µM
[31]
  GI50: 17.8 µM
  CC50: > 100 µM
[32]
  GI50: 11.9 µM
  CC50: 49.2 µM
[33]
  GI50: 13.8 µM
  CC50: 62.3 µM
[34]
  GI50: 11.7 µM
  CC50: 50.3 µM
[35]
  GI50: 16.4 µM
  CC50: 57.3 µM
[36]
  GI50: 2.06 µM
  CC50: 9.88 µM
